Measured values published in US10646459B2, “Sphingosine pathway modulating compounds for the treatment of cancers” (Enzo Biochem, Inc., priority 2017, dated 2020).

Experiments:
Hep 3B cells = assay: Apoptosis/necrosis assay (flow cytometry), Hep 3B cells; type: cell-based, human; conditions: 24 hours; SK1-I 10, 20, 40 μM; ozanimod 10, 20, 40 μM; ABC294640 10, 20, 40 μM; vs no-drug control
Protocol: (§1) Apoptosis/necrosis assays evaluating the effect of different concentrations of each of ozanimod, ABC294640 and SK1-I on the four human hepatocellular carcinoma cell lines, Hep G2, Hep 3B, Huh 7 and PLC-PRF5 were also performed.
(§2) The protocol used for the apoptosis assays was: • Plated cells in 6-well plates and incubated at 37° C. overnight. • Prepared […], 20 μM, and 40 μM. • SK1-I: 10 μM, 20 μM, and 40 μM. • Control: 0.2% DMSO. • Aspirated the medium from the 6-well plates and added test compound concentrations in media or 0.2% DMSO control in media. Incubated at 37° C. for 24 hours. • Collected and processed the cells following the flow cytometry protocol of the GFP Certified® Apoptosis/Necrosis detection kit from Enzo Life Sciences, Inc. (product no. ENZ-51002; Farmingdale, N.Y., USA).
(§3) FIGS. 5-16 present graphs plotting the data from these 24-hour apoptosis assays for the different concentrations of compounds and no-drug control for the various cell lines. Channel FL2 picks up the apoptosis signal and channel FL3 picks up the necrosis signal. Data points in Quadrant 3 (Q3) in the graphs corresponds to cells undergoing apoptosis (cells positive for the apoptosis detection reagent of the assay). Data points in Quadrant 2 (Q2) in the graphs corresponds to cells that are positive for the apoptosis detection reagent and positive for the necrosis detection reagent of the assay (indicative of late-stage apoptosis).

Hep G2 cells = assay: Apoptosis/necrosis assay (flow cytometry), Hep G2 cells; type: cell-based, human; conditions: 24 hours; SK1-I 10, 20, 40 μM; ozanimod 10, 20, 40 μM; ABC294640 10, 20, 40 μM; vs no-drug control
Protocol: as §1, §2, §3

Huh7 cells = assay: Apoptosis/necrosis assay (flow cytometry), Huh7 cells; type: cell-based, human; conditions: 24 hours; SK1-I 10, 20, 40 μM; ozanimod 5, 10, 20 μM; ABC294640 10, 20, 40 μM; vs no-drug control
Protocol: as §1
(§4) The protocol used for the apoptosis assays was: • Plated cells in 6-well plates and incubated at 37° C. overnight. • Prepared concentrations of test compound and control compound DMSO in media. • Ozanimod: 5 μM, 10 μM, and 20 μM. • ABC294640: 10 μM, 20 μM, and 40 μM. • SK1-I: 10 μM, 20 μM, and 40 μM. • Control: 0.2% DMSO. • Aspirated the medium from the 6-well plates and added test compound concentrations in media or 0.2% DMSO control in media. Incubated at 37° C. for 24 hours. • Collected and processed the cells following the flow cytometry protocol of the GFP Certified® Apoptosis/Necrosis detection kit from Enzo Life Sciences, Inc. (product no. ENZ-51002; Farmingdale, N.Y., USA).
as §3

PLC-PRF5 cells = assay: Apoptosis/necrosis assay (flow cytometry), PLC-PRF5 cells; type: cell-based, human; conditions: 24 hours; SK1-I 10, 20, 40 μM; ozanimod 5, 10, 20 μM; ABC294640 10, 20, 40 μM; vs no-drug control
Protocol: as §1, §4, §3

[1] = system: primary human hepatocytes; assay: Apoptosis/necrosis assay, normal primary human hepatocytes; type: cell-based; conditions: 24 hours; SK1-I 10, 20, 40 μM; ozanimod 2.5, 5, 10 μM; normal (non-cancerous) cells
Protocol: In still further experiments, the effects of SK1-I and ozanimod on normal (non-cancerous) primary human hepatocytes were investigated. Fresh human hepatocytes in a 12-well plate (HUF12) were obtained from Triangle Research Labs (Durham, N.C., USA; part of Lonza Group) and handled according to the supplier's protocol. The shipping medium was aspirated from each well and replaced with 1 ml per well of warm Hepatocyte Maintenance Medium. The plate was then placed in a 5% CO2 incubator at 37° C. and the hepatocytes were allowed to acclimate overnight. The Hepatocyte Maintenance Medium was replaced before treatment with drug or no-drug control, and the hepatocytes were treated with 0 μM (no-drug control), 10 μM, 20 μM, or 40 μM SK1-I or 0 μM, 2.5 μM, 5 μM, or 10 μM ozanimod for 24 hours under incubation. The cells were then harvested and analyzed using the GFP Certified® Apoptosis/Necrosis detection kit. The results are shown in FIGS. 19A-D for SK1-I and FIGS. 20A-D for ozanimod as follows.

[2] = system: Jurkat cells (human T-cell leukemia cell line); assay: Apoptosis assay, Jurkat cells; type: cell-based; conditions: SK1-I 10, 20 μM; ozanimod 5, 10 μM; vs no-drug control
Protocol: as §4
as §3, with “apoptosis). […]” for “apoptosis).”

[3] = system: human hepatocellular carcinoma cell lines Hep G2, Huh 7, and PLC-PRF5; assay: MTT cell viability assay (48 hours); type: cell-based; conditions: Hep G2, Huh 7, PLC-PRF5
Protocol: The following MTT assay protocol was followed. • Prepared stock solutions: 50 mM ozanimod, 50 mM ABC294640, 10 mM SK1-I in DMSO. • Plated 20000 cells in 160 μl medium per well in 96-well plates for each cell line and incubated at 37° C. overnight. • Prepared compound serial dilutions: for ozanimod and ABC294640: dilute stock 50 mM 1:50 in medium to 1000 μM; for SK1-I, dilute stock 10 mM 1:50 in medium to […], them make serial 1:1.8 fold serial dilution to the titration. For negative control, diluted DMSO 1:50 to medium. • Added 40 μl negative control and serially titrated compounds to 160 μl of cells for each cell line. Performed in triplicate for each cell line. • Incubated at 37° C. for 72 hours. • Performed assay using Vybrant MTT Cell Proliferation Assay kit (V-13154) (Molecular Probes) from Thermo Fisher Scientific (Waltham, Mass. USA).
48-hour treatment MTT assays were also performed as follows.

Compound | induction of apoptosis in Hep 3B cells (Hep 3B cells) | induction of apoptosis in Hep G2 cells (Hep G2 cells) | induction of apoptosis in Huh7 cells (Huh7 cells) | induction of apoptosis in PLC-PRF5 cells (PLC-PRF5 cells) | induction of apoptosis of primary human hepatocytes [1] | induction of apoptosis in Jurkat cells [2] | killing of hepatocellular carcinoma cells (MTT), comparison with PF-543 [3]
O=C(NCc1ccncc1)C12CC3C[C@H](C1)CC(c1ccc(Cl)cc1)(C3)C2 [ABC294640, (7S)-3-(4-chlorophenyl)-N-(pyridin-4-ylmethyl)adamantane-1-carboxamide] | did not substantially induce apoptosis | failed to induce apoptosis | failed to induce apoptosis | did not substantially induce apoptosis |  |  | 
CC(C)Oc1ccc(-c2nc(-c3cccc4c3CC[C@@H]4NCCO)no2)cc1C#N [Ozanimod, 5-[3-[(1S)-1-(2-hydroxyethylamino)-2,3-dihydro-1H-inden-4-yl]-1,2,4-oxadiazol-5-yl]-2-propan-2-yloxybenzonitrile] | strongly induced apoptosis | strongly induced apoptosis | strongly induced apoptosis | strongly induced apoptosis | did not induce apoptosis | strongly induced apoptosis | 
CCCCCc1ccc(/C=C/[C@H](O)[C@@H](CO)NC)cc1 [SK1-I, (E,2R,3S)-2-(methylamino)-5-(4-pentylphenyl)pent-4-ene-1,3-diol] | strongly induced apoptosis | strongly induced apoptosis | strongly induced apoptosis | strongly induced apoptosis | did not induce apoptosis | strongly induced apoptosis | more effective at killing hepatocellular carcinoma cells than PF-543
